From ChEMBL document CHEMBL1136301, “1,2,5,6-tetra-O-benzyl-D-mannitol derivatives as novel HIV protease inhibitors” (Bioorg Med Chem Lett, 2003)

Target: Human immunodeficiency virus type 1 protease (Human immunodeficiency virus 1, UniProt Q72874)
Assay: Inhibitory activity against HIV-1 protease

SMILES | IC50
O[C@H]([C@H](O)[C@H](COCc1ccccc1)OCc1ccccc1)[C@@H](COCc1ccccc1)OCc1ccccc1 | > 50 µM
O[C@H]([C@H](O)[C@@H](COCc1ccccc1)OCc1ccccc1)[C@@H](COCc1ccccc1)OCc1ccccc1 | > 50 µM
O[C@@H]([C@H](O)[C@@H](COCc1ccccc1)OCc1ccccc1)[C@@H](COCc1ccccc1)OCc1ccccc1 | 2.4 µM
OC(C(COCc1ccccc1)OCc1c(F)cccc1F)C(O)C(COCc1ccccc1)OCc1c(F)cccc1F (stereo not drawn) | 6.4 µM
OC(C(COCc1ccccc1)OCc1ccccc1F)C(O)C(COCc1ccccc1)OCc1ccccc1F (stereo not drawn) | 3.7 µM
OC(C(COCc1ccccc1)OCc1ccc(F)cc1F)C(O)C(COCc1ccccc1)OCc1ccc(F)cc1F (stereo not drawn) | 2.6 µM
OC(C(COCc1ccccc1)OCc1cccc(F)c1)C(O)C(COCc1ccccc1)OCc1cccc(F)c1 (stereo not drawn) | 1.8 µM
Cc1ccc(COC(COCc2ccccc2)C(O)C(O)C(COCc2ccccc2)OCc2ccc(C)cc2)cc1 (stereo not drawn) | 3.7 µM
OC(C(COCc1ccccc1)OCc1ccc(C(F)(F)F)cc1)C(O)C(COCc1ccccc1)OCc1ccc(C(F)(F)F)cc1 (stereo not drawn) | 10 µM
O[C@@H](C[C@@H](COCc1ccccc1)OCc1ccccc1)[C@@H](COCc1ccccc1)OCc1ccccc1 | > 50 µM
OC(C(COCc1c(F)cccc1F)OCc1ccc(F)cc1)C(O)C(COCc1c(F)cccc1F)OCc1ccc(F)cc1 (stereo not drawn) | 0.33 µM
N#Cc1ccc(COC(COCc2ccccc2)C(O)C(O)C(COCc2ccccc2)OCc2ccc(C#N)cc2)cc1 (stereo not drawn) | 5.4 µM
O[C@H]([C@@H](O)[C@H](COCc1ccccc1)OCc1ccccc1)[C@H](COCc1ccccc1)OCc1ccccc1 | > 50 µM
OC(C(COCc1ccc(C(F)(F)F)cc1)OCc1ccc(C(F)(F)F)cc1)C(O)C(COCc1ccc(C(F)(F)F)cc1)OCc1ccc(C(F)(F)F)cc1 (stereo not drawn) | 6 µM
OC(C(COCc1ccccc1)OCc1ccc(Br)cc1)C(O)C(COCc1ccccc1)OCc1ccc(Br)cc1 (stereo not drawn) | 2.1 µM
O=C(O)c1ccc(COCC(OCc2ccccc2)C(O)C(O)C(COCc2ccc(C(=O)O)cc2)OCc2ccccc2)cc1 (stereo not drawn) | 5 µM
COC(=O)c1ccc(COC(COCc2ccccc2)C(O)C(O)C(COCc2ccccc2)OCc2ccc(C(=O)OC)cc2)cc1 (stereo not drawn) | 8.4 µM
OC(C(COCc1ccccc1F)OCc1ccc(F)cc1)C(O)C(COCc1ccccc1F)OCc1ccc(F)cc1 (stereo not drawn) | 0.2 µM
OC(C(COCc1ccccc1)OCc1ccc(Cl)cc1)C(O)C(COCc1ccccc1)OCc1ccc(Cl)cc1 (stereo not drawn) | 2 µM
OC(C(COCc1ccccc1)OCc1ccc(F)cc1)C(O)C(COCc1ccccc1)OCc1ccc(F)cc1 (stereo not drawn) | 0.7 µM
N#Cc1ccc(COCC(OCc2ccc(C#N)cc2)C(O)C(O)C(COCc2ccc(C#N)cc2)OCc2ccc(C#N)cc2)cc1 (stereo not drawn) | 3.1 µM
Cc1ccc(COCC(OCc2ccccc2)C(O)C(O)C(COCc2ccc(C)cc2)OCc2ccccc2)cc1 (stereo not drawn) | 3 µM

SMILES | IC50
OC(C(COCc1ccccc1F)OCc1ccccc1)C(O)C(COCc1ccccc1F)OCc1ccccc1 (stereo not drawn) | 0.6 µM
OCc1ccc(COC(COCc2ccccc2)C(O)C(O)C(COCc2ccccc2)OCc2ccc(CO)cc2)cc1 (stereo not drawn) | 10 µM
N#Cc1ccc(COCC(OCc2ccccc2)C(O)C(O)C(COCc2ccc(C#N)cc2)OCc2ccccc2)cc1 (stereo not drawn) | 4.3 µM
O=C(O)c1ccc(COC(COCc2ccccc2)C(O)C(O)C(COCc2ccccc2)OCc2ccc(C(=O)O)cc2)cc1 (stereo not drawn) | 26 µM
OC(C(COCc1cccc(F)c1)OCc1ccccc1)C(O)C(COCc1cccc(F)c1)OCc1ccccc1 (stereo not drawn) | 1.5 µM
NCc1ccc(COC(COCc2ccccc2)C(O)C(O)C(COCc2ccccc2)OCc2ccc(CN)cc2)cc1 (stereo not drawn) | 27 µM
OC(C(COCc1ccc(Cl)cc1)OCc1ccccc1)C(O)C(COCc1ccc(Cl)cc1)OCc1ccccc1 (stereo not drawn) | 5.2 µM
Cc1ccc(COCC(OCc2ccc(C)cc2)C(O)C(O)C(COCc2ccc(C)cc2)OCc2ccc(C)cc2)cc1 (stereo not drawn) | 7 µM
OC(C(COCc1ccc(F)cc1)OCc1ccc(F)cc1)C(O)C(COCc1ccc(F)cc1)OCc1ccc(F)cc1 (stereo not drawn) | 1.6 µM
O[C@@H]([C@H](O)[C@@H](Cc1ccccc1)OCc1ccccc1)[C@@H](Cc1ccccc1)OCc1ccccc1 | > 50 µM
OC(C(COCc1ccc(Br)cc1)OCc1ccccc1)C(O)C(COCc1ccc(Br)cc1)OCc1ccccc1 (stereo not drawn) | 6 µM
NC(=O)c1ccc(COC(COCc2ccccc2)C(O)C(O)C(COCc2ccccc2)OCc2ccc(C(N)=O)cc2)cc1 (stereo not drawn) | 20 µM
OC(C(COCc1ccc(F)cc1)OCc1ccccc1)C(O)C(COCc1ccc(F)cc1)OCc1ccccc1 (stereo not drawn) | 2.5 µM
COC(=O)c1ccc(COCC(OCc2ccccc2)C(O)C(O)C(COCc2ccc(C(=O)OC)cc2)OCc2ccccc2)cc1 (stereo not drawn) | 2 µM
OC(C(COCc1c(F)cccc1F)OCc1ccccc1)C(O)C(COCc1c(F)cccc1F)OCc1ccccc1 (stereo not drawn) | 0.33 µM
OC(C(COCc1ccc(F)cc1F)OCc1ccccc1)C(O)C(COCc1ccc(F)cc1F)OCc1ccccc1 (stereo not drawn) | 4.2 µM
O[C@@H]([C@H](OCc1ccccc1)[C@H](COCc1ccccc1)OCc1ccccc1)[C@@H](COCc1ccccc1)OCc1ccccc1 | > 50 µM
OC(C(COCc1ccc(C(F)(F)F)cc1)OCc1ccccc1)C(O)C(COCc1ccc(C(F)(F)F)cc1)OCc1ccccc1 (stereo not drawn) | 5 µM
O[C@@H]([C@H](O)[C@@H](COc1ccccc1)OCc1ccccc1)[C@@H](COc1ccccc1)OCc1ccccc1 | > 50 µM
Cc1ccccc1COC(COCc1ccccc1F)C(O)C(O)C(COCc1ccccc1F)OCc1ccccc1C (stereo not drawn) | 0.8 µM
OCc1ccc(COCC(OCc2ccccc2)C(O)C(O)C(COCc2ccc(CO)cc2)OCc2ccccc2)cc1 (stereo not drawn) | 1.2 µM
